Tests used:
[1] = molecular target: alpha-L-fucosidase (Bos taurus); assay: The compound was tested for the inhibitory activity against alpha-L-Fucosidase in bovine kidney
[2] = molecular target: alpha-L-fucosidase (Bos taurus); assay: as above; remark: listed apart in the source

Compound `CC1CC(O)(CN)C(O)C(O)C1O` (stereo not drawn) [1-Aminomethyl-5-methyl-cyclohexane-1,2,3,4-tetraol] has a Ki [1] of 3000 nM and a Ki [2] of 2.8 µM.

`CC1=CC(N)C(O)C(O)C1O` (stereo not drawn) [6-Amino-4-methyl-cyclohex-4-ene-1,2,3-triol] gave a Ki [2] of 45 µM.

Reference: BindingDB's records for doi:10.1016/s0960-894x(02)00004-5 (Keio University, 2002)
